For 26 compounds, CC50 and EC50 results are on record in patent US9855230B2 (ViiV Healthcare UK (No. 5) Limited, priority 2014, dated 2018).

Like-named read-outs stand apart in the source and are kept apart here.

A word on the CC50: it is the concentration that lowers cell viability or growth by half.

Data set [1] can be described thus: Compound cytotoxicity (CC50), XTT-based colorimetric assay. The class given is cell-based. The note with it: human; uninfected MT2 cells, day 4, XTT assay. On the procedure: Compound cytotoxicity and the corresponding CC50 values were determined using the same protocol as described in the antiviral assay except that uninfected cells were used. Cytotoxicity was assessed on day 4 in uninfected MT2 cells by using a XTT (2,3-bis[2-Methoxy-4-nitro-5-sulfophenyl]-2H-tetrazolium-5-carboxyanilide inner salt)-based colorimetric assay (Sigma-Aldrich, St Louis, Mo.).
(Tetrazolium dyes change colour on reduction, which living cells bring about.)

For data set [2], the system named is recombinant NL4-3 virus (nef section replaced with Renilla luciferase gene) in MT-2 cells. Briefly: whole plant or invertebrate. The class given is cell-based, HIV. The note with it: NL43, luciferase activity in MT-2 cells infected 4-5 days with recombinant NL4-3 virus. The text has this:
A recombinant NL4-3 proviral clone, in which a section of the nef gene was replaced with the Renilla luciferase gene, was used to make the reference virus used in these studies.
Supernatent was harvested after 2-3 days and the amount of virus present was titered in MT-2 cells using luciferase enzyme activity as a marker by measuring luciferase enzyme activity. Luciferase was quantitated using the EnduRen Live Cell Substrate from Promega (Madison, Wis.). Antiviral activities of compounds toward the recombinant virus were quantified by measuring luciferase activity in MT-2 cells infected for 4-5 days with the recombinant virus in the presence of serial dilutions of the compound.

In data set [1], `Cc1ccccc1S(=O)(=O)NC(=O)N[C@@H](Cc1ccccc1)c1nccn1-c1ccc(OC(C)C)cc1` [Example 21, (S)-N-((1-(1-(4-isopropoxyphenyl)-1H-imidazol-2-yl)-2-phenylethyl)carbamoyl)-2-methylbenzenesulfonamide] registered a CC50 at 4 day of over 100000 nM. Besides, the EC50 in data set [2] (read-out: Activity) was under 100 nM; in data set [2] (read-out: EC50), 50 nM.

In the case of `Cc1ccccc1S(=O)(=O)NC(=O)N[C@@H](Cc1ccccc1)c1nccn1-c1ccc2c(c1)OCCO2` [Example 22], the cytotoxic concentration (CC50) at 4 day in data set [1] was over 100000 nM. The EC50 in data set [2] (read-out: Activity) is 100 to 1000 nM.

For the compound `Cc1cccc(-n2ccnc2[C@H](Cc2ccccc2)NC(=O)NS(=O)(=O)c2ccccc2C)c1` [Example 23, (S)-2-methyl-N-((2-phenyl-1-(1-(m-tolyl)-1H-imidazol-2-yl)ethyl)carbamoyl)benzenesulfonamide], the cytotoxic concentration (CC50) at 4 day in data set [1] is over 100000 nM. The EC50 in data set [2] (read-out: Activity) is under 100 nM.

As to `CCOc1cccc(-n2ccnc2[C@H](Cc2ccccc2)NC(=O)NS(=O)(=O)c2ccccc2C)c1` [Example 24, (S)-N-((1-(1-(3-ethoxyphenyl)-1H-imidazol-2-yl)-2-phenylethyl)carbamoyl)-2-methylbenzenesulfonamide], the half-maximal cytotoxic concentration (CC50) at 4 day in data set [1] was over 100000 nM. The EC50 in data set [2] (read-out: Activity) is 100 to 1000 nM; in data set [2] (read-out: EC50) it was 600 nM.

For the compound `CCCOc1ccc(-n2ccnc2[C@H](Cc2ccccc2)NC(=O)NS(=O)(=O)c2ccccc2C)cc1Cl` [Example 25, (S)-N-((1-(1-(3-chloro-4-propoxyphenyl)-1H-imidazol-2-yl)-2-phenylethyl)carbamoyl)-2-methylbenzenesulfonamide], the half-maximal cytotoxic concentration (CC50) at 4 day in data set [1] was 50000 nM. The EC50 in data set [2] (read-out: Activity) is under 100 nM.

On to `CCOc1ccc(-n2ccnc2[C@H](Cc2ccccc2)NC(=O)NS(=O)(=O)c2ccccc2C)cc1Cl` [Example 26, (S)-N-((1-(1-(3-chloro-4-ethoxyphenyl)-1H-imidazol-2-yl)-2-phenylethyl)carbamoyl)-2-methylbenzenesulfonamide], for which the 50% cytotoxic concentration (CC50) at 4 day in data set [1] was over 100000 nM. Further, the EC50 in data set [2] (read-out: Activity) is under 100 nM.

In turn, `Cc1ccccc1S(=O)(=O)NC(=O)N[C@@H](Cc1ccccc1)c1nccn1-c1ccc2c(c1)OCO2` [Example 27, (S)-N-((1-(1-(benzo[d][1,3]dioxol-5-yl)-1H-imidazol-2-yl)-2-phenylethyl)carbamoyl)-2-methylbenzenesulfonamide] yielded a CC50 at 4 day in data set [1] of over 100000 nM. Moreover, the results for the EC50 in data set [2] (read-out: Activity) and in data set [2] (read-out: EC50) were under 100 nM and 70 nM, respectively.

In the case of `Cc1ccccc1-n1ccnc1[C@H](Cc1ccccc1)NC(=O)NS(=O)(=O)c1ccccc1C` [Example 28, (S)-2-methyl-N-((2-phenyl-1-(1-(o-tolyl)-1H-imidazol-2-yl)ethyl)carbamoyl)benzenesulfonamide], the CC50 at 4 day in data set [1] was over 100000 nM. In data set [2] (read-out: Activity), the EC50 was over 1000 nM.

Take `Cc1ccccc1S(=O)(=O)NC(=O)N[C@@H](Cc1ccccc1)c1nccn1-c1ccc(OCc2ccccc2)cc1` [Example 30, (S)-N-((1-(1-(4-(benzyloxy)phenyl)-1H-imidazol-2-yl)-2-phenylethyl)carbamoyl)-2-methylbenzenesulfonamide]: in data set [1], the CC50 at 4 day was over 100000 nM. Moreover, the EC50 in data set [2] (read-out: Activity) was 100 to 1000 nM; in data set [2] (read-out: EC50), 280 nM.

As to `Cc1ccccc1S(=O)(=O)NC(=O)N[C@@H](Cc1ccccc1)c1nccn1-c1ccccc1` [Example 31, (S)-2-methyl-N-((2-phenyl-1-(1-phenyl-1H-imidazol-2-yl)ethyl)carbamoyl)benzenesulfonamide], in data set [1], the CC50 at 4 day was over 100000 nM. The EC50 in data set [2] (read-out: Activity) was in the range of 100 to 1000 nM.

Compound `Cc1ccc(-n2ccnc2[C@H](Cc2ccccc2)NC(=O)NS(=O)(=O)c2ccccc2C)cc1Cl` [Example 32, (S)-N-((1-(1-(3-chloro-4-methylphenyl)-1H-imidazol-2-yl)-2-phenylethyl)carbamoyl)-2-methylbenzenesulfonamide] displayed a CC50 at 4 day in data set [1] of over 100000 nM. Further, in data set [2] (read-out: Activity), the EC50 is under 100 nM.

`Cc1ccccc1S(=O)(=O)NC(=O)N[C@@H](Cc1ccccc1)c1nccn1-c1ccc([N+](=O)[O-])cc1` [Example 33, (S)-2-methyl-N-((1-(1-(4-nitrophenyl)-1H-imidazol-2-yl)-2-phenylethyl)carbamoyl)benzenesulfonamide] showed a 50% cytotoxic concentration (CC50) at 4 day in data set [1] of over 100000 nM. The EC50 in data set [2] (read-out: Activity) was 100 to 1000 nM; in data set [2] (read-out: EC50), 190 nM.

`CCOC(=O)Nc1ccc(-n2ccnc2[C@H](Cc2ccccc2)NC(=O)NS(=O)(=O)c2ccccc2C)cc1` [Example 34, (S)-ethyl (4-(2-(2-phenyl-1-(3-(o-tolylsulfonyl)ureido)ethyl)-1H-imidazol-1-yl)phenyl)carbamate] gave a CC50 at 4 day in data set [1] of over 100000 nM. Further, the EC50 in data set [2] (read-out: Activity) is under 100 nM.

Regarding `CC(=O)Nc1ccc(-n2ccnc2[C@H](Cc2ccccc2)NC(=O)NS(=O)(=O)c2ccccc2C)cc1` [Example 35, (S)-N-(4-(2-(2-phenyl-1-(3-(o-tolylsulfonyl)ureido)ethyl)-1H-imidazol-1-yl)phenyl)acetamide], the CC50 at 4 day in data set [1] was over 33000 nM. In data set [2] (read-out: Activity), the EC50 lay within 100 to 1000 nM.

In data set [1], `COC(=O)Nc1ccc(-n2ccnc2[C@H](Cc2ccccc2)NC(=O)NS(=O)(=O)c2ccccc2Cl)cc1` [Example 36, (S)-methyl (4-(2-(1-(3-((2-chlorophenyl)sulfonyl)ureido)-2-phenylethyl)-1H-imidazol-1-yl)phenyl)carbamate] displayed a half-maximal cytotoxic concentration (CC50) at 4 day of over 100000 nM. For the same compound, the EC50 in data set [2] (read-out: Activity) was under 100 nM; in data set [2] (read-out: EC50), 60 nM.

With `COC(=O)Nc1ccc(-n2ccnc2[C@H](Cc2ccccc2)NC(=O)NS(=O)(=O)c2ccccc2)cc1` [Example 37, (S)-methyl (4-(2-(2-phenyl-1-(3-(phenylsulfonyl)ureido)ethyl)-1H-imidazol-1-yl)phenyl)carbamate], the CC50 at 4 day in data set [1] was over 33000 nM. In data set [2] (read-out: Activity), the EC50 lay within 100 to 1000 nM.

On to `COC(=O)Nc1ccc(-n2ccnc2[C@H](Cc2ccccc2)NC(=O)NS(=O)(=O)c2ccc(C)cc2)cc1` [Example 38, (S)-methyl (4-(2-(2-phenyl-1-(3-tosylureido)ethyl)-1H-imidazol-1-yl)phenyl)carbamate], for which the half-maximal cytotoxic concentration (CC50) at 4 day in data set [1] was over 100000 nM. Moreover, the EC50 in data set [2] (read-out: Activity) was 100 to 1000 nM.

As for `COC(=O)Nc1ccc(-n2ccnc2[C@@H](Cc2ccccc2)NC(=O)NS(=O)(=O)c2ccccc2C)cc1` [Example 39], the half-maximal cytotoxic concentration (CC50) at 4 day in data set [1] is over 11000 nM. In addition, the EC50 in data set [2] (read-out: Activity) was over 1000 nM; in data set [2] (read-out: EC50) it was 1420 nM.

In data set [1], `COc1ccc(Cn2ccnc2[C@H](Cc2ccccc2)NC(=O)NS(=O)(=O)c2ccccc2C)cc1` [Example 40, (S)-N-((1-(1-(4-methoxybenzyl)-1H-imidazol-2-yl)-2-phenylethyl)carbamoyl)-2-methylbenzenesulfonamide] returned a cytotoxic concentration (CC50) at 4 day of over 33000 nM. Moreover, the EC50 in data set [2] (read-out: Activity) was in the range of 100 to 1000 nM.

In turn, `COc1ccc(Cn2ccnc2[C@H](Cc2ccccc2)NC(=O)NS(=O)(=O)c2ccccc2Cl)cc1` [Example 41, (S)-2-chloro-N-((1-(1-(4-methoxybenzyl)-1H-imidazol-2-yl)-2-phenylethyl)carbamoyl)benzenesulfonamide] had a CC50 at 4 day in data set [1] of over 33000 nM. In addition, the EC50 in data set [2] (read-out: Activity) is 100 to 1000 nM.

`Cc1ccccc1S(=O)(=O)NC(=O)N[C@@H](Cc1ccccc1)c1nccn1-c1ccc(N)cc1` [Example 42, (S)-N-((1-(1-(4-aminophenyl)-1H-imidazol-2-yl)-2-phenylethyl)carbamoyl)-2-methylbenzenesulfonamide] registered a half-maximal cytotoxic concentration (CC50) at 4 day in data set [1] of over 100000 nM. The figures for the EC50 in data set [2] (read-out: Activity) and in data set [2] (read-out: EC50) were under 100 nM and 40 nM, respectively.

Turning to `COC(=O)Nc1ccc(-n2ccnc2[C@H](Cc2ccccc2)NC(=O)NS(=O)(=O)c2ccccc2OC)cc1` [Example 44, (S)-methyl (4-(2-(1-(3-((2-methoxyphenyl)sulfonyl)ureido)-2-phenylethyl)-1H-imidazol-1-yl)phenyl)carbamate], in data set [1], the CC50 at 4 day is over 100000 nM. Besides, the EC50 in data set [2] (read-out: Activity) was under 100 nM.

Compound `COC(=O)Nc1ccc(-n2ccnc2[C@H](Cc2ccccc2)NC(=O)NS(=O)(=O)c2ccccc2OC(F)(F)F)cc1` [Example 45, (S)-methyl (4-(2-(2-phenyl-1-(3-((2-(trifluoromethoxy)phenyl)sulfonyl)ureido)ethyl)-1H-imidazol-1-yl)phenyl)carbamate] showed a CC50 at 4 day in data set [1] of over 100000 nM. In addition, the EC50 is under 100 nM in data set [2] (read-out: Activity) and 60 nM in data set [2] (read-out: EC50).

Turning to `COC(=O)Nc1ccc(-n2ccnc2[C@H](Cc2ccccc2)NC(=O)NS(=O)(=O)c2ccc(C)s2)cc1` [Example 46, (S)-methyl (4-(2-(1-(3-((5-methylthiophen-2-yl)sulfonyl)ureido)-2-phenylethyl)-1H-imidazol-1-yl)phenyl)carbamate], the CC50 at 4 day in data set [1] was over 100000 nM. Besides, the EC50 in data set [2] (read-out: Activity) was in the range of 100 to 1000 nM.

In turn, `COC(=O)Nc1ccc(-n2ccnc2[C@H](Cc2ccccc2)NC(=O)NS(=O)(=O)Cc2ccccc2)cc1` [Example 47, (S)-methyl (4-(2-(1-(3-(benzylsulfonyl)ureido)-2-phenylethyl)-1H-imidazol-1-yl)phenyl)carbamate] returned a cytotoxic concentration (CC50) at 4 day in data set [1] of over 33000 nM. Also, in data set [2] (read-out: Activity), the EC50 lay within 100 to 1000 nM.

`COC(=O)Nc1ccc(-n2ccnc2[C@H](Cc2ccccc2)NC(=O)NS(=O)(=O)Cc2cccc(Cl)c2)cc1` [Example 48, (S)-methyl (4-(2-(1-(3-((3-chlorobenzyl)sulfonyl)ureido)-2-phenylethyl)-1H-imidazol-1-yl)phenyl)carbamate] yielded a CC50 at 4 day in data set [1] of over 100000 nM. Moreover, the EC50 in data set [2] (read-out: Activity) was under 100 nM; in data set [2] (read-out: EC50) it was 70 nM.
